Patent EP1200395B1, “UREA DERIVATIVES AS INHIBITORS OF CCR-3 RECEPTOR” (KIRIN BEER KABUSHIKI KAISHA, priority 1999, dated 2001)

Experiments:
[1] = test system: collagen-induced arthritis; assay: Type II collagen-induced arthritis in mice, clinical score; format: in vivo, Male DBA/1 mice; conditions: 20 mg/kg per day subcutaneously starting at 2nd immunization; versus control vehicle; Figure 1A/1B
[2] = test system: human-derived eosinophils; assay: Eotaxin-induced chemotaxis of cultured eosinophils; format: cell-based; conditions: 10.00 µM compound, human eotaxin 1 x 10^-9 M, 37°C for 1 hour; for inhibition at 10 µM: Eosinophil
Experimental: The inhibitory activity of the compounds against eotaxin-mediated chemotaxis of human-derived eosinophils was determined assay described below. Eosinophils were prepared from culture of human cord blood mononuclear cells as described by Ohashi, H. et al., Int Arch Allergy Immunol. (1999) 118, 44-50. For the assay, eosinophils were resuspended at 1 x 10^7 cells/ml in assay medium (RPMI 1640 medium containing 0.1 % bovine serum albumin (BSA)). The chemotaxis assay was performed in a 24-well culture plate. Human eotaxin suspended in assay medium was added into wells at 1 x 10^-9 M with test compounds at various concentrations. For a positive control, eotaxin was added without a test compound, and for a negative control, neither eotaxin nor a test compound was added to the wells. Chemotaxicell (Kurabo Co., Ltd.) having 5 micrometers pore size were inserted into each well and 100 microliters of eosinophil suspension were added to the top chamber. The plates were incubated at 37°C for 1 hour. After incubation, migrated cells in lower wells were diluted and counted by particle size distribution analyzer (CDP-500, Sysmex Co., Ltd.).

CCR-3 = molecular target: T1, CCR-3 (Homo sapiens, UniProt P51677); assay: Eotaxin-induced chemotaxis of CCR-3 transfectant cells (CCR3/U937); format: cell-based; set-up: expressed in transfected cells; host or cells: U937; conditions: 10 µM test compound, eotaxin 1 x 10^-9 M; for inhibition at 10 µM: U-937
T1 sequence (P51677 1-355): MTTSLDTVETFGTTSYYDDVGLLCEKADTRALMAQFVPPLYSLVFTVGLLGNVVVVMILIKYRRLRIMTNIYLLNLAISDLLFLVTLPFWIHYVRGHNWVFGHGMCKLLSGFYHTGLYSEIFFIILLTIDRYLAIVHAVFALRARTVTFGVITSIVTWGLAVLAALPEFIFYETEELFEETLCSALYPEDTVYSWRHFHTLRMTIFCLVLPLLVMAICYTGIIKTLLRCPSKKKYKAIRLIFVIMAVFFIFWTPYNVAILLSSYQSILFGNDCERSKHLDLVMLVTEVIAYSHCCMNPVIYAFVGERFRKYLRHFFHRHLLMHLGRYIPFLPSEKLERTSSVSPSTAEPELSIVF

[3] = test system: eosinophil infiltration to bronchoalveolar lavage fluid (BALF); assay: Eosinophil infiltration in bronchoalveolar lavage fluid (BALF), murine asthma model; format: in vivo, Male BALB/c mice; conditions: administered intraperitoneally for 9 days; two hundred cells counted per slide; Figure 2C
Experimental: (§1) Male BALB/c mice were immunized by an intraperitoneal injection of 10 µg OVA adsorbed to 1 mg aluminum hydroxide gel (alum). A booster injection of the same dose of alum-adsorbed OVA was given 5 days later. Unitnmunized control mice received saline.
(§2) Twelve days after primary immunization, both the immunized and unimmunized mice were exposed to aerosolized antigen. Aerosolization of OVA was performed using a nose-only aerosol chamber adapted for mice. Animals were exposed for 10 minutes to 5 mg/ml OVA aerosolized by an ultrasonic nebulizer (NE-U12, Omron, Tokyo, Japan) driven by a vacuum pump. The antigen bronchoprovocation was repeated on day 16 and day 20 under the same conditions. Compound No. 298 (CPD No. 298) was dissolved in saline containing 2 % DMSO and 2 % Cremophore and administered intraperitoneally for 9 days, starting on the first day of antigen inhalation.
Immediately after the measurement of airway reactivity to acethycholine, BALF was collected by lavaging whole-lung three times with 0.7-ml aliquots of physiological saline containing 0.1 % BSA via the tracheal cannula while gently massaging the thorax. The BALF recovered from one mouse was pooled, centrifuged, and the cells were resuspended in 100 µl saline containing 0.1 % BSA. Cell numbers were determined using a hemocytometer and 2 x 10^4 cells were cytecetrifuged onto a glass slide. […]

[4] = test system: bronchoconstriction provoked by acetylcholine; assay: Airway hyperreactivity: bronchoconstriction provoked by acetylcholine (murine asthma model, OVA-immunized mice); format: in vivo, Male BALB/c mice; conditions: administered intraperitoneally for 9 days, starting on the first day of antigen inhalation; Figure 2A
Experimental: as §1, §2
Twenty-four hours after the final aerosol exposure, bronchoconstriction was measured by the overflow method of Konzett and Rössler. […] Bronchoconstriction was recorded on a flatbed recorder (Model FBR-252A, TOA Electronics Ltd., Tokyo, Japan). […]

Row | Compound | clinical score, collagen-induced arthritis [1] | inhibition at 10 µM [2] | Cultured Eosinophil Chemotaxis assay 10.00 µM (inhibition %) [2] | Chemotaxis Assay 10 µM (inhibition %) (CCR-3; CCR3/U937 cells (Table 3a)) | inhibition at 10 µM (CCR-3; CCR3/U937 cells (Table 3c)) | other results
1 | O=C(O)CCCN(CCCNC(=O)Nc1ccc(Br)cc1)C1CCCc2ccccc21 (stereo not drawn) [Compound 60, 4-[[3-(4-Bromophenylureido)propyl](1,2,3,4-tetrahydro-1-naphthyl)amino]butanoic acid] | marked prevention in clinical score | 100% | – | – | – | inhibition at 10 µM (CCR-3; CCR3/U937 cells (Table 3a)): 98%
2 | COc1cc(CN(CCCNC(=O)Nc2ccc(Br)cc2)CCCC(=O)O)cc(OC)c1OC [Compound 66] | – | – | 44% | 32% | – | –
3 | O=C(O)CCCN(CCCNC(=O)Nc1ccc(Br)cc1)Cc1ccccc1 [Compound 67] | – | – | 71% | 100% | – | –
4 | CC[N+](CC)(CCCNC(=O)Nc1ccccc1)CCc1ccc(Cl)cc1 [Compound 91, [3-(Phenylureido)propyl][2-(4-chlorophenyl)ethyl]-diethylammonium iodide] | – | 100% | – | – | 100% | –
5 | CC[N+](CC)(CCCNC(=O)Nc1ccc(Br)cc1)CCc1ccc(Cl)cc1 [Compound 92, [3-(4-Bromophenylureido)propyl][2-(4-chlorophenyl)ethyl]-diethylammonium iodide] | – | 100% | – | – | 100% | –
6 | CC[N+](CCCNC(=O)Nc1ccccc1)(CCc1ccc(Cl)cc1)Cc1ccc(Cl)cc1.[I-] (stereo not drawn) [Compound 298, [3-(Phenylureido)propyl][2-(4-chlorophenyl)ethyl](4-chlorobenzyl)ethylammonium iodide] | marked prevention in clinical score | – | – | – | 100% | eosinophil infiltration to bronchoalveolar lavage fluid (BALF) [3]: significantly suppressed eosinophil infiltration; bronchoconstriction provoked by acetylcholine [4]: Inhibition of bronchoconstriction
